Blank lines part the entries; values can stand above or below the compound they belong to.
Columns and labels:
Dihydrofolate reductase = molecular target: T1, Dihydrofolate reductase (Rattus norvegicus, UniProt Q920D2)
T1 sequence (Q920D2 whole entry): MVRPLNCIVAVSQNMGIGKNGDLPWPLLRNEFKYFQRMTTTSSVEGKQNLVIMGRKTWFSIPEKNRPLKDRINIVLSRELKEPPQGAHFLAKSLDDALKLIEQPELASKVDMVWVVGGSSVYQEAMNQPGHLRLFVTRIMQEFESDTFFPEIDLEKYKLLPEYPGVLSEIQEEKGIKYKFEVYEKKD
Description: Inhibition of dihydrofolate reductase from rat liver.

Pneumocystis carinii [1] = assay: Inhibitory activity against cell growth of pneumocystis carinii measured by direct counting of organisms in the culture supernatant fluid at 50.7 uM
Toxoplasma gondii [2] = assay: Inhibitory activity against cell growth of Toxoplasma gondii measured by the incorporation of [3H]uracil at 7.8 uM
Toxoplasma gondii [3] = assay: Inhibitory activity against cell growth of Toxoplasma gondii measured by the incorporation of [3H]uracil at 10 uM
MDA-N = assay: […] cytotoxic evaluation against breast cancer MDA-N cell line; assay type: functional, Homo sapiens
SF-295 = assay: […] cytotoxic evaluation against CNS cancer SF-295 cell line; assay type: functional, Homo sapiens
HCC 2998 = assay: […] cytotoxic evaluation against colon cancer HCC2998 cell line; assay type: functional, Homo sapiens
HCT-116 = assay: In vitro cytotoxic evaluation against colon cancer HCT116 cell line
SK-MEL-5 = assay: […] cytotoxic evaluation against melanoma SK-MEL-5 cell line; assay type: functional, Homo sapiens
EKVX = assay: […] cytotoxic evaluation against human lung cancer EKVX cell line; assay type: functional
K562 = assay: […] cytotoxic evaluation against human leukemic K-562 cell line; assay type: functional
LOX IMVI = assay: […] cytotoxic evaluation against melanoma LOX IMVI cell line; assay type: functional, Homo sapiens
MOLT-4 = assay: […] cytotoxic evaluation against human leukemic Molt-4 cell line; assay type: functional
COLO 205 = assay: […] cytotoxic evaluation against colon cancer COLO 205 cell line; assay type: functional, Homo sapiens
MDA-MB-435 = assay: […] cytotoxic evaluation against breast cancer MDA-MB-435 cell line; assay type: functional, Homo sapiens
[4] = Ratio of inhibitory activity against dihydrofolate reductase of rat liver to pneumocystis carinii
[5] = Ratio of inhibitory activity against dihydrofolate reductase of rat liver to Toxoplasma gondii
Toxoplasma gondii [6] = assay: Inhibitory activity against cell growth of Toxoplasma gondii measured by the incorporation of [3H]uracil at […]
Pneumocystis carinii [7] = assay: Inhibitory activity against cell growth of pneumocystis carinii measured by direct counting of organisms in the culture supernatant fluid at 10 uM
Toxoplasma gondii [8] = assay: Inhibitory activity against cell growth of Toxoplasma gondii measured by the incorporation of [3H]uracil at <=10 uM

Compound: Nc1nc(N)c2cc(CNc3cccc4ccccc34)cnc2n1
IC50 (Dihydrofolate reductase): 0.6 µM | inhibition at 50.7 µM (Pneumocystis carinii [1]): 50% | inhibition at 7.8 µM (Toxoplasma gondii [2]): 50%

Compound: COc1ccc(NCc2cnc3nc(N)nc(N)c3c2)cc1OC
IC50 (Dihydrofolate reductase): 0.56 µM

Compound: Nc1nc(N)c2cc(CNc3ccc(Cl)c(Cl)c3)cnc2n1
GI50 (MDA-N): 0.95 µM | GI50 (SF-295): 3.8 µM | GI50 (HCC 2998): 2.7 µM | GI50 (HCT-116): 0.62 µM | GI50 (SK-MEL-5): 1.1 µM | IC50 (Dihydrofolate reductase): 0.48 µM | GI50 (EKVX): 2.4 µM | GI50 (K562): 0.33 µM | GI50 (LOX IMVI): 0.82 µM | GI50 (MOLT-4): 1.1 µM | GI50 (COLO 205): 1.7 µM | GI50 (MDA-MB-435): 1.3 µM

Compound: Nc1nc(N)c2cc(CNc3cc(Cl)c(Cl)c(Cl)c3)cnc2n1
GI50 (MDA-N): 0.5 µM | GI50 (SF-295): 0.74 µM | GI50 (HCC 2998): 0.78 µM | GI50 (HCT-116): 0.74 µM | GI50 (SK-MEL-5): 0.35 µM | IC50 (Dihydrofolate reductase): 4.6 µM | GI50 (EKVX): 0.85 µM | GI50 (K562): 0.35 µM | GI50 (LOX IMVI): 0.031 µM | GI50 (MOLT-4): 0.71 µM | GI50 (COLO 205): 0.31 µM | GI50 (MDA-MB-435): 0.57 µM

Compound: CN(Cc1cnc2nc(N)nc(N)c2c1)c1cc(Cl)c(Cl)c(Cl)c1
IC50 (Dihydrofolate reductase): 0.27 µM

Compound: COc1ccc(OC)c(CN(C)c2cnc3nc(N)nc(N)c3c2)c1
Ratio [4]: 0.7 | Ratio [5]: 9

Compound: CN(Cc1cnc2nc(N)nc(N)c2c1)c1ccc(Cl)c(Cl)c1
IC50 (Dihydrofolate reductase): 0.18 µM

Compound: Nc1nc(N)c2cc(CNc3ccccc3)cnc2n1
Inhibition (Toxoplasma gondii [8]): 0%

Compound: COc1cc(NCc2ccc3nc(N)nc(N)c3c2C)cc(OC)c1OC
Ratio [4]: 0.07 | Ratio [5]: 0.3

Second part, led by results:

IC50 (Dihydrofolate reductase): 0.79 µM
Compound: COc1cccc(NCc2cnc3nc(N)nc(N)c3c2)c1

IC50 (Dihydrofolate reductase): 5 µM
Compound: COc1ccc(OC)c(NCc2cnc3nc(N)nc(N)c3c2)c1
inhibition at 10 µM (Toxoplasma gondii [3]): < 50%

IC50 (Dihydrofolate reductase): 395 µM
Compound: CN(Cc1cnc2nc(N)nc(N)c2c1)c1ccccc1

Ratio [4]: 0.02
Compound: COc1cc(NCc2cnc3nc(N)nc(N)c3c2C)cc(OC)c1OC
Ratio [5]: 0.3

IC50 (Dihydrofolate reductase): 4.9 µM
Compound: Nc1nc(N)c2cc(CNc3ccc4ccccc4c3)cnc2n1
GI50 (MDA-N): 4.4 µM | GI50 (SF-295): 8.2 µM | GI50 (HCC 2998): 1.1 µM | GI50 (HCT-116): 1.9 µM | GI50 (SK-MEL-5): 3.2 µM | GI50 (EKVX): 9 µM | GI50 (K562): 0.5 µM | GI50 (LOX IMVI): 1.6 µM | GI50 (MOLT-4): 2 µM | GI50 (COLO 205): 2.4 µM | GI50 (MDA-MB-435): 10 µM

IC50 (Dihydrofolate reductase): 6.9 µM
Compound: Nc1nc(N)c2cc(CNc3cc(Cl)ccc3Cl)cnc2n1
GI50 (MDA-N): 3 µM | GI50 (SF-295): 4 µM | GI50 (HCC 2998): 3 µM | inhibition at […] (Toxoplasma gondii [6]): 50% | GI50 (HCT-116): 2.1 µM | GI50 (SK-MEL-5): 2.2 µM | GI50 (EKVX): 6.6 µM | GI50 (K562): 1.6 µM | GI50 (LOX IMVI): 0.71 µM | GI50 (MOLT-4): 2 µM | GI50 (COLO 205): 2.3 µM | inhibition at 10 µM (Pneumocystis carinii [7]): 88% | GI50 (MDA-MB-435): 2.4 µM
